Results reported in paper PMC6437697 (Journal of Medicinal Chemistry, 2019).

Legend:
Experiment in all cases: KINOMEscan
Format in all cases: binding
Details in all cases: read-out: % control activity remaining
PAK1 = target: T1, PAK1 (Homo sapiens, UniProt Q13153)
T1 construct: purchased Eurofins DiscoverX KINOMEscan

CHEK1 = target: T2, CHEK1 (Homo sapiens, UniProt O14757)
T2 construct: purchased Eurofins DiscoverX KINOMEscan
T2 sequence (O14757 1-476): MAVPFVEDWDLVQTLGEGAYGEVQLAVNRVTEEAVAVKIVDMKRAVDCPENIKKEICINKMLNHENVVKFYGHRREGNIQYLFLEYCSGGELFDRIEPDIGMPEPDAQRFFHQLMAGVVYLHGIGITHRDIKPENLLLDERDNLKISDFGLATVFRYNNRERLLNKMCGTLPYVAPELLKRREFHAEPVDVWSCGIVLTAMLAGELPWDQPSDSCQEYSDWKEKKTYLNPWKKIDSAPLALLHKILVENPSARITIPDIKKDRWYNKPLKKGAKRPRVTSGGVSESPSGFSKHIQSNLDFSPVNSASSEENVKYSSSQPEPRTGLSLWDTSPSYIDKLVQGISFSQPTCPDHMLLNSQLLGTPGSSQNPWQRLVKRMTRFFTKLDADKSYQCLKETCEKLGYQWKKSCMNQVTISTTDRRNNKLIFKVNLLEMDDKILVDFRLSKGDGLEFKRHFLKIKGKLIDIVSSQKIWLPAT

HUNK = target: T3, HUNK (Homo sapiens, UniProt P57058)
T3 construct: purchased Eurofins DiscoverX KINOMEscan
T3 sequence (P57058 1-714): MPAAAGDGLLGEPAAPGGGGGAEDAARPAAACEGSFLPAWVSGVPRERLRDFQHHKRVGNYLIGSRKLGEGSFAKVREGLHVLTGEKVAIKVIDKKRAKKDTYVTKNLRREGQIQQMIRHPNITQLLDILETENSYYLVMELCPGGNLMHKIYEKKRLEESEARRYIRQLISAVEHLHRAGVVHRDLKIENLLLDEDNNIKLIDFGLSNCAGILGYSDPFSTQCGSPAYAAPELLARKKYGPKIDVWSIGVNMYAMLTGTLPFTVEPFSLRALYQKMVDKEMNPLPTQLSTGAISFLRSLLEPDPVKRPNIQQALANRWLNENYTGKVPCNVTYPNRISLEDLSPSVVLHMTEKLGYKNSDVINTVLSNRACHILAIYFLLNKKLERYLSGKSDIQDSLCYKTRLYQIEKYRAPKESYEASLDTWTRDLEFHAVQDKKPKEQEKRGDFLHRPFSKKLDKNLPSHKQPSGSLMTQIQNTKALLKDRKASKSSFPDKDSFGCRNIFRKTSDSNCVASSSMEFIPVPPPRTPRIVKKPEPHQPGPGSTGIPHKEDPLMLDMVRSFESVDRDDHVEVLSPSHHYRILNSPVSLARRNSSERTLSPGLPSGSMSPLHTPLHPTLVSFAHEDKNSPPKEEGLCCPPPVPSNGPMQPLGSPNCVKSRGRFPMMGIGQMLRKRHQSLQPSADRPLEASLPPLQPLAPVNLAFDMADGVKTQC

YES = target: T4, YES (Homo sapiens, UniProt P07947)
T4 construct: purchased Eurofins DiscoverX KINOMEscan

BMPR2 = target: T5, BMPR2 (Homo sapiens, UniProt Q13873)
T5 construct: purchased Eurofins DiscoverX KINOMEscan
T5 sequence (Q13873 27-1038): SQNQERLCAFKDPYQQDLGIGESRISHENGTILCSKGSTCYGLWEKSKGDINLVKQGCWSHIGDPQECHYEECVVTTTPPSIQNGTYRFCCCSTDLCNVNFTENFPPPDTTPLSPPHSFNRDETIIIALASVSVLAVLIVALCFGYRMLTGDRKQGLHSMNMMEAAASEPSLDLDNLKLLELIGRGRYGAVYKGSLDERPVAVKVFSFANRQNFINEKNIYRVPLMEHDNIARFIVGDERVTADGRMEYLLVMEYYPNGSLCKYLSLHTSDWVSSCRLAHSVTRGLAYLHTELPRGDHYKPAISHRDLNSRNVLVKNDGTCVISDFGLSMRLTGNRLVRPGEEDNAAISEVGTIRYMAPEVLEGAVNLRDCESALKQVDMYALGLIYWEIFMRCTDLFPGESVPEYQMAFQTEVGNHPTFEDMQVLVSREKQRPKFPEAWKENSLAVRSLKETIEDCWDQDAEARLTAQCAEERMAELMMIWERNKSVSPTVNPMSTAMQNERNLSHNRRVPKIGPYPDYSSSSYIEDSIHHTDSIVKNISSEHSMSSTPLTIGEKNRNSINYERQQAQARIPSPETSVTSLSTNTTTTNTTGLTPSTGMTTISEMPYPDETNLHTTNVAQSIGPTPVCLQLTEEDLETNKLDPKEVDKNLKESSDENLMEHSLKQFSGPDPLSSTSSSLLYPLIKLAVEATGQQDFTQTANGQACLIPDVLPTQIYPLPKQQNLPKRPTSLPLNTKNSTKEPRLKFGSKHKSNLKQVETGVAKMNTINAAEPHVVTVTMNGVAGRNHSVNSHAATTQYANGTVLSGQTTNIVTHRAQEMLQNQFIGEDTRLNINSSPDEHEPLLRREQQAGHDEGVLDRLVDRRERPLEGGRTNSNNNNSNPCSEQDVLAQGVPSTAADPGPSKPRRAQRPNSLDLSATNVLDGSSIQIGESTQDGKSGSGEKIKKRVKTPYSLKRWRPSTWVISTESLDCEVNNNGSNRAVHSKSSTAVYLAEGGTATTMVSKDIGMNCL

TIE1 = target: T6, TIE1 (Homo sapiens, UniProt P35590)
T6 construct: purchased Eurofins DiscoverX KINOMEscan

SBK1 = target: T7, SBK1 (Homo sapiens, UniProt Q52WX2)
T7 construct: purchased Eurofins DiscoverX KINOMEscan

FLT1 = target: T8, FLT1 (Homo sapiens, UniProt P17948)
T8 construct: purchased Eurofins DiscoverX KINOMEscan

DAPK2 = target: T9, DAPK2 (Homo sapiens, UniProt Q9UIK4)
T9 construct: purchased Eurofins DiscoverX KINOMEscan

HIPK1 = target: T10, HIPK1 (Homo sapiens, UniProt Q86Z02)
T10 construct: purchased Eurofins DiscoverX KINOMEscan

T4 sequence (P07947 whole entry): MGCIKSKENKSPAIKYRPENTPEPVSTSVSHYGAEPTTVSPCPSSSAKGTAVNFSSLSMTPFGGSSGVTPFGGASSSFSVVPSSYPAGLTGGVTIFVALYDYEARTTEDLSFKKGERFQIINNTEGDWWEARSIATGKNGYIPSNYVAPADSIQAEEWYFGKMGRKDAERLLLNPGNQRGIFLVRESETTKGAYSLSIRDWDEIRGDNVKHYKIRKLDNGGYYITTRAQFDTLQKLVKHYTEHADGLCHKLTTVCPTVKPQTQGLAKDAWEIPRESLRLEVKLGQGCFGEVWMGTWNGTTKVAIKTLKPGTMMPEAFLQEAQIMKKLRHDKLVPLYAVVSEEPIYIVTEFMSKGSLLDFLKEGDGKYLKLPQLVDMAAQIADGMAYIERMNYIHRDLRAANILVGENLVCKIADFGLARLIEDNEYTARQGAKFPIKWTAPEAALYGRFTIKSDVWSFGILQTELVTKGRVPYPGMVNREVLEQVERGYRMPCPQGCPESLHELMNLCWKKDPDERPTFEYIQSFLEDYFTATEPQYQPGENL
T7 sequence (Q52WX2 whole entry): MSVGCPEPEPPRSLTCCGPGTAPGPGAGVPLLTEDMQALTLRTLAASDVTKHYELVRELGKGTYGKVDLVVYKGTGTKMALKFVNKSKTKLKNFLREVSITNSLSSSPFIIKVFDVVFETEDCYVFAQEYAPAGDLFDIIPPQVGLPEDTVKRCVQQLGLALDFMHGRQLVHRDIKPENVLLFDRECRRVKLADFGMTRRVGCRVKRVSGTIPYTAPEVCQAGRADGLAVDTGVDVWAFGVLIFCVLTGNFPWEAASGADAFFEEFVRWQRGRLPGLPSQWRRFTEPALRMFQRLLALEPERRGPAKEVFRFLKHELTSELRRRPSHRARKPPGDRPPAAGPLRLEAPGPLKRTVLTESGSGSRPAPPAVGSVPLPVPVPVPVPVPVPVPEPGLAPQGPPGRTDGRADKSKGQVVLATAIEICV
T6 sequence (P35590 22-1138): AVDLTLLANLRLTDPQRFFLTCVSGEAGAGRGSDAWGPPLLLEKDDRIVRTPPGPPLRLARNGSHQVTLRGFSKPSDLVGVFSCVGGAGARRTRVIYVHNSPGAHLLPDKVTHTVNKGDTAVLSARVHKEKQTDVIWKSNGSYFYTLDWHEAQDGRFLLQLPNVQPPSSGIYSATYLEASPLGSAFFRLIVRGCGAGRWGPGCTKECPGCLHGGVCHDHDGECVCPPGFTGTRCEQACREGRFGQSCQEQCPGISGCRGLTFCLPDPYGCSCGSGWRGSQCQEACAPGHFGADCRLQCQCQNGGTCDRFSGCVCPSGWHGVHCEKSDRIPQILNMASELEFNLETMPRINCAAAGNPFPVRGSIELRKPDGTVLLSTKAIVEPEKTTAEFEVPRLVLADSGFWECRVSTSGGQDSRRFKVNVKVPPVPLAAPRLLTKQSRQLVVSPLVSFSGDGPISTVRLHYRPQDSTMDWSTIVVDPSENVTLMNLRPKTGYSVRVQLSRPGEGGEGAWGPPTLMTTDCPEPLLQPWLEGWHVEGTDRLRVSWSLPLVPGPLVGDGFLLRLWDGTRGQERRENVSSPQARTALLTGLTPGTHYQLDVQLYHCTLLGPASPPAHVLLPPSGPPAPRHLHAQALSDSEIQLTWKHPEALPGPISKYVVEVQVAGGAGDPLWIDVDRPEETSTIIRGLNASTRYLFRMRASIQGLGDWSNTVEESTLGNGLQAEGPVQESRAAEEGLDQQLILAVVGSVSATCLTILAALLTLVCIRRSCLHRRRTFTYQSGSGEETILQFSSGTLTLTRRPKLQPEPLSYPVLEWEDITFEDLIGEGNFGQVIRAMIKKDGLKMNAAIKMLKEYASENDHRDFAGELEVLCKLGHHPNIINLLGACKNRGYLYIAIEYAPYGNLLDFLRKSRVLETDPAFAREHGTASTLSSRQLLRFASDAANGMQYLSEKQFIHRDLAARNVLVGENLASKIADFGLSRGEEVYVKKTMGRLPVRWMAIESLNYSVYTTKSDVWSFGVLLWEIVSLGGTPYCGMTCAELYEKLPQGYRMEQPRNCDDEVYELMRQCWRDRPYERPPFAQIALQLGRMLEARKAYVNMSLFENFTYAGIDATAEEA
T9 sequence (Q9UIK4 whole entry): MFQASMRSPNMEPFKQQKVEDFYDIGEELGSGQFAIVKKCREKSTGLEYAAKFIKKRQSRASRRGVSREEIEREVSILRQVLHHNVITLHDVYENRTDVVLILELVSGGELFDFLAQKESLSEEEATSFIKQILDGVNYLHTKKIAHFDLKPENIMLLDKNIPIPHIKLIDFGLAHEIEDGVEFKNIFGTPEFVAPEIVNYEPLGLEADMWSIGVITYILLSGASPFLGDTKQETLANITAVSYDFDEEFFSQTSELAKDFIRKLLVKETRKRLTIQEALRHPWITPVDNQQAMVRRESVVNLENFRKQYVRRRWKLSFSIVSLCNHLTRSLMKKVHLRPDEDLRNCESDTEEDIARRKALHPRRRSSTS
T8 sequence (P17948 27-1338): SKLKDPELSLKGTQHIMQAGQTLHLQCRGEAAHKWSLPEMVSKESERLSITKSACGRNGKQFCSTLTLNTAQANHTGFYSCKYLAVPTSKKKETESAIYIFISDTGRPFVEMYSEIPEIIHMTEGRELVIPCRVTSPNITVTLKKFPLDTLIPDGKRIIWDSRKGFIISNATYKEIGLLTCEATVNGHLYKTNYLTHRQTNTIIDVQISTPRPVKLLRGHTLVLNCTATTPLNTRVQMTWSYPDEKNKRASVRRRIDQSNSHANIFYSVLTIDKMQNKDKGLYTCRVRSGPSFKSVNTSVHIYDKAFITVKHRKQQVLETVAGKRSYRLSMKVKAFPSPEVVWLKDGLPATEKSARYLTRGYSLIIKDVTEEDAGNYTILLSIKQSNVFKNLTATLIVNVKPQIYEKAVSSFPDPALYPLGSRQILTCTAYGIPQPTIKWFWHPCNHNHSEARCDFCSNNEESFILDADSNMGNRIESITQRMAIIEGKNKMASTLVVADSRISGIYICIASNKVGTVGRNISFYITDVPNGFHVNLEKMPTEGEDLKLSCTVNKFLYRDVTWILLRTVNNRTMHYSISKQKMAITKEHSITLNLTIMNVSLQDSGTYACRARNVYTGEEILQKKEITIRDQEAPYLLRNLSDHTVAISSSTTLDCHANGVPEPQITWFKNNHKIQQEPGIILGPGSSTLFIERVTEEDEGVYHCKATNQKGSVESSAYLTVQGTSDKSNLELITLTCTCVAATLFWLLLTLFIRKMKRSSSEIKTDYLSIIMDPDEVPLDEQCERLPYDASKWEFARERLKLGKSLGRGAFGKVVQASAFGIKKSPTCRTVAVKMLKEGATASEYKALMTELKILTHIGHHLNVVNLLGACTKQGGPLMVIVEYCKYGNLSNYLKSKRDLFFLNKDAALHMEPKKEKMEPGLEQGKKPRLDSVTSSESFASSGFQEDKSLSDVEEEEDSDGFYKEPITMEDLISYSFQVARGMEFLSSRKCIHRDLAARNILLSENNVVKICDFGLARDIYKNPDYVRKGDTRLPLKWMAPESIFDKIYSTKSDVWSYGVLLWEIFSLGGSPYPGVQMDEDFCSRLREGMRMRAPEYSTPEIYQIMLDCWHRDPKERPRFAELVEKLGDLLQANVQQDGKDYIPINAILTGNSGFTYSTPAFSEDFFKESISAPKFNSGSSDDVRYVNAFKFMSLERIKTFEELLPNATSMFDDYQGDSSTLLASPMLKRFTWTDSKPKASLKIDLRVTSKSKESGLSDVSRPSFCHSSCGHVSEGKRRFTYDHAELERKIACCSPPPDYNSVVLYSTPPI
T1 sequence (Q13153 whole entry): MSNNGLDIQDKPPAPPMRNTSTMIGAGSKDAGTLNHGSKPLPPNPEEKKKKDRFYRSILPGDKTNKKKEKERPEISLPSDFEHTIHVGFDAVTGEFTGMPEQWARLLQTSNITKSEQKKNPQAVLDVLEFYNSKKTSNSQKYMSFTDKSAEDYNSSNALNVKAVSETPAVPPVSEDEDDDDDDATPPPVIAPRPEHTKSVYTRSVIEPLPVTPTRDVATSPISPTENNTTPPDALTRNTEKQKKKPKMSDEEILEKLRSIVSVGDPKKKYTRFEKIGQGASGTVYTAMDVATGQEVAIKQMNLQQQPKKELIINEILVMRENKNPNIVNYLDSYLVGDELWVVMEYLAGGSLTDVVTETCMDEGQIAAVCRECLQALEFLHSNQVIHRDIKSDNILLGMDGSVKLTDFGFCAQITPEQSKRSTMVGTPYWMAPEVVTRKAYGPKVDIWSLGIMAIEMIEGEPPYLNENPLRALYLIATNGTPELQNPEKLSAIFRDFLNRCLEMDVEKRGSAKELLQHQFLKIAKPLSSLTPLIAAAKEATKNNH

| SMILES | remaining binding at 1 µM (PAK1) | remaining binding at 1 µM (CHEK1) | remaining binding at 1 µM (HUNK) | remaining binding at 1 µM (YES) | remaining binding at 1 µM (BMPR2) | remaining binding at 1 µM (TIE1) | remaining binding at 1 µM (SBK1) | remaining binding at 1 µM (FLT1) | remaining binding at 1 µM (DAPK2) | remaining binding at 1 µM (HIPK1) |
| --- | --- | --- | --- | --- | --- | --- | --- | --- | --- | --- |
| Clc1cc(NCC2CC2)c2ncc(-c3ccc4[nH]ncc4c3)n2n1 [compound 2, 6-Chloro-N-(cyclopropylmethyl)-3-(1H-indazol-5-yl)imidazo[1,2-b]pyridazin-8-amine] | 98% | 88% | 90% | 91% | 96% | 99% | 87% | 90% | 91% | 42% |
| O=C(CN1CCOCC1)N[C@H]1CC[C@H](Nc2cc(Cl)nn3c(-c4ccc5[nH]ncc5c4)cnc23)CC1 [compound 26] | 99% | 100% | 100% | 93% | 100% | 67% | 89% | 11% | 69% | 0.45% |
| CN1CCC(CNc2cc(Cl)nn3c(-c4cc5nc(Nc6ccccc6)[nH]c5cc4F)cnc23)CC1 [compound 31, 6-Chloro-3-(6-fluoro-2-(phenylamino)-1H-benzo[d]imidazol-5-yl)-N-((1-methylpiperidin-4-yl)methyl)imidazo[1,2-b]pyridazin-8-amine] | 89% | 100% | 92% | 96% | 91% | 84% | 77% | 45% | 98% | 74% |
